Here are results for 17 molecules from ChEMBL document CHEMBL2412998, “Search for a novel SIRT1 activator: structural modification of SRT1720 and biological evaluation” (Bioorg Med Chem Lett, 2013).

Test [1] addresses T1, NAD-dependent protein deacetylase sirtuin-1 (Homo sapiens) (UniProt Q96EB6).
T1 sequence (whole entry): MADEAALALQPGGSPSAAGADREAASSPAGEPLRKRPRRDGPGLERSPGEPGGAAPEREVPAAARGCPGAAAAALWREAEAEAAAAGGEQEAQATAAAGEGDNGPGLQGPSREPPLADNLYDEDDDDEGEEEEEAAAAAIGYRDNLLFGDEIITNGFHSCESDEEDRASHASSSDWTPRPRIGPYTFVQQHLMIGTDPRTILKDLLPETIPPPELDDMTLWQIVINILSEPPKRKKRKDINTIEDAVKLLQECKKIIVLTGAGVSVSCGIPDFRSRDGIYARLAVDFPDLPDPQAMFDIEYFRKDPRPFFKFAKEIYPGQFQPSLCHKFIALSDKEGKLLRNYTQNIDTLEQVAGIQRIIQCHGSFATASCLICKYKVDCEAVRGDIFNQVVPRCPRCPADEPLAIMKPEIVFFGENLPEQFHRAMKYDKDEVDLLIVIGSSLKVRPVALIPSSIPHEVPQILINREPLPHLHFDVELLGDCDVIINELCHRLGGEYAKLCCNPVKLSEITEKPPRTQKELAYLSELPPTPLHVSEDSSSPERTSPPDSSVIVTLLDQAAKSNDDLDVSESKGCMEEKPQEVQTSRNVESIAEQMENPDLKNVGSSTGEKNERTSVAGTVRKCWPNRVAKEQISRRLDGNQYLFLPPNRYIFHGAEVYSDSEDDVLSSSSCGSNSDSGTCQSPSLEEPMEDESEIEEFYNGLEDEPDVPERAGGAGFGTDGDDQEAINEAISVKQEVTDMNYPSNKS
As to the kind of experiment: Activation of human recombinant SIRT1 at 10 uM preincubated for 60 mins prior to substrate addition measured after 60 mins by fluorescence assay.

Test [2] concerns the target T1, NAD-dependent protein deacetylase sirtuin-1 (Homo sapiens). As to the kind of experiment: Activation of human recombinant SIRT1 at 100 uM preincubated for 60 mins prior to substrate addition measured after 60 mins by fluorescence assay.

Structures are written as SMILES. The source made the active and inactive calls. The calls are words filed in the database; no cut-off is given here.

As for `O=C(Nc1cccc(-c2cn3c(CN4CCNCC4)csc3n2)c1)c1cc2ccccc2[nH]1`, the outcome in test [1] was inactive.
As to `O=C(Nc1ccc(-c2cn3c(CN4CCNCC4)csc3n2)cc1)c1cnc2ccccc2n1`, the result in test [1] was inactive.
Still for that read-out and setting: the same measure for `O=C(Nc1ccccc1-c1cn2c(CN3CCNCC3)csc2n1)c1cccc2ccccc12`: “inactive”; for `O=C(Nc1ccccc1-c1cn2c(CN3CCNCC3)csc2n1)c1ccnc2ccccc12`: “inactive”.
`O=C(Nc1ccccc1-c1cn2c(CN3CCNCC3)csc2n1)c1cnc2ccccc2n1`: the outcome in test [2] was Active. In addition, the Activity in test [1] worked out at 160%.
As to `O=C(Nc1cccc(-c2cn3c(CN4CCCC4)csc3n2)c1)c1cnc2ccccc2n1`, in test [1], the result was inactive.
In the case of `O=C(Nc1cccc(-c2cn3c(CN4CCNCC4)csc3n2)c1)c1cnc2ccccc2c1`, the result in test [2] was Active. For the same molecule, in test [1], the Activity was found to be 140%.
In the case of `CNCc1csc2nc(-c3ccccc3NC(=O)c3cnc4ccccc4n3)cn12`, the outcome in test [1] was inactive.
For `COCCOCOCc1csc2nc(-c3ccccc3NC(=O)c3cnc4ccccc4n3)cn12`, the result in test [1] was inactive.
Consider `O=C(Nc1ccccc1-c1cn2c(CN3CCNCC3)csc2n1)c1ccc2ccccc2c1`, for which, in test [1], the outcome was inactive.
In the case of `O=C(Nc1cccc(-c2cn3c(CN4CCNCC4)csc3n2)c1)c1cnc2ccccc2n1`, the outcome in test [2] and in test [1] was Active.
In the case of `O=C(Nc1cccc(-c2cn3c(CN4CCNCC4)csc3n2)c1)c1ccc2ccccc2n1`, the result in test [2] was Active. Also, the Activity in test [1] stood at 140%.
On to `O=C(Nc1cccc(-c2cn3c(CN4CCCCC4)csc3n2)c1)c1cnc2ccccc2n1`, for which the outcome in test [1] was inactive.
For the molecule `O=C(Nc1cccc(-c2cn3c(CN4CCNCC4)csc3n2)c1)c1ccnc2ccccc12`, the outcome in test [1] was inactive.
For the molecule `O=C(Nc1cccc(-c2cn3c(CN4CCNCC4)csc3n2)c1)c1cnccn1`, the outcome in test [1] was inactive.
Same read-out and setting: the same measure for `COCc1csc2nc(-c3ccccc3NC(=O)c3cnc4ccccc4n3)cn12`: “inactive”; for `O=C(Nc1cccc(-c2cn3c(CN4CCOCC4)csc3n2)c1)c1cnc2ccccc2n1`: “inactive”.
